# In patent US11596652B2, “Early apoptotic cells for use in treating sepsis” (ENLIVEX THERAPEUTICS LTD., priority 2015, dated 2023):
# Several values for one entry are separate records, joined by “and”; a condition that tells them apart may be missing. Equal values may be shown once.
# Assays:
# [1] = test system: serum cytokines/chemokines; assay: CLP model: serum cytokines/chemokines (Luminex); format: in vivo, mouse; conditions: 24 h and 48 h post-CLP
# Method: At the indicated times (pre-CLP, 24 h, 48 h, and 72 h post-CLP) ˜500 μl blood was collected in a pre-labeled Eppendorf tube and left for 30 min to allow clotting. The samples were centrifuged at 1800 g (3000 rpm) for 10 min at 4° C., […]. Serum was transferred to a new pre-labeled Eppendorf tube and kept at 4° C. Excess serum was stored at −80° C. Cytokine/chemokine measurement was performed using the Luminex MAGPIX system, and analysis was performed with Milliplex software.
# Cytokine/chemokine measurement was performed using the Luminex MAGPIX system, and analysis was performed with Milliplex software. NGAL and Cystatin C were tested by Luminex Multiplex kit (Millipore, MKI2MAG-P4k). All reagents were provided with the kit, and all reagents were prepared according to the manufacturers' protocols. The assays were performed in 96-well plates according to the protocol provided. Plate reading was performed with the Luminex MAGPIX system (Luminex Corp.) and analyzed using Milliplex software (Millipore). […] The raw data was measured as mean fluorescence intensity (MFI) and the concentration of each analyte for each sample was calculated using a 4- or 5-parameter logistic fit curve generated for each analyte from the 7 standards. The lower limit of quantification (LLOQ) was determined using the lowest standard that was at least 3 times above background. […]
# CLP-induced sepsis [2] = assay: CLP model: organ dysfunction analysis 24 hours post CLP (blood gas, hematology, biochemistry, lung weight, NGAL, cystatin C, C3a, C5a); format: in vivo, mouse; conditions: CLP + Ertapenem mice
# Method: 22-24 h after CLP, mice were weighed, assigned an MSS clinical score and sacrificed for the evaluation of organ dysfunction. Mice were bled through the retro-orbital sinus (venous blood). Naïve mice were bled under isoflurane analgesia; CLP mice were bled without analgesia due to the concern of death. 100 μl blood was collected using heparin-coated capillary tube (Paul Marienfeld, K G, Lauda-Knigshofen, Germany) and immediately tested using STAT profile prime machine (Nova Biomedical, Waltham, Mass., USA). […] was collected into EDTA tubes (MiniCollect, Greiner Bio-One, […], Austria), tubes were rotated to prevent blood clotting and kept at 4° C. Hematology analysis was performed by AML laboratories (Herzliya, Israel). About 500 μl blood was collected to a pre-labeled Eppendorf tube and left for -30 min to allow clotting. The samples were centrifuged at 1800 g (3000 rpm) for 10 min at 4° C., 200 μl serum was transferred to a new pre-labeled Eppendorf tube and kept at 4° C. Excess serum was stored in -80° C. Biochemistry analysis was performed by AML laboratories (Herzliya, Israel). […] Blood was collected to pre-labeled Eppendorf tubes and left for -30 min to allow clotting. Tubes were centrifuged at 1800 g (3000 rpm) for 10 min at 4° C. Serum was transferred to new pre-labeled Eppendorf tubes and stored at -80° C. for Luminex (NGAL and Cystatin C) and ELISA (C3a and C5a) evaluation. Cytokine/chemokine measurement was performed using the Luminex MAGPIX system, and analysis was performed with Milliplex software. NGAL and Cystatin C were tested by Luminex Multiplex kit (Millipore, […]). All reagents were provided with the kit, and all reagents were prepared according to the manufacturers' protocols. The assays were performed in 96-well plates according to the protocol provided. Plate reading was performed with the Luminex MAGPIX system (Luminex Corp.) and analyzed using Milliplex software (Millipore). […] The raw data was measured as mean fluorescence intensity (MFI) and the concentration of each analyte for each sample was calculated using a 4- or 5-parameter logistic fit curve generated for each analyte from the 7 standards. […] The calculation of the LLOQ was performed by subtracting the MFI of the background (diluent) from the MFI of the lowest standard concentration and back-calculating the concentration from the standard curve. Complement components were tested by sandwich ELISA kits: […]038) and C5a (EA100633, OriGene, Rockville, Md., USA). All reagents were provided with the kits and prepared according to the manufacturers' protocols. Assays were performed in 96-well plate according to the protocols provided. OD plate reading was performed with the Infinite F50 (TECAN, Mainnedorf, Switzerland) and analyzed using Magellan software (TECAN). The raw data was measured as 450 nm optical density (OD) and the concentration was calculated using a linear standard curve generated from 6-7 standards. The lower limit of quantification (LLOQ) was determined using the lowest standard. The calculation of the LLOQ was performed by subtracting the OD of the background (diluent) from the OD of the lowest standard concentration and back-calculating the concentration from the standard curve. […] N=40) was assigned with a clinical score, weighed, and blood samples were drawn from the retro-orbital sinus for further analyses. Mice were sacrificed and their lungs were harvested and weighed. To elucidate the effects of CLP on organ dysfunction and its correlation with the MSS clinical score, blood was tested for multiple parameters of organ dysfunction relating to five major systems: cardiovascular, respiratory, renal, hepatic, and hematological, as well as complement and several metabolites (Tables 24A and 24B).
# CLP-induced sepsis [3] = assay: Cecal ligation puncture (CLP) mouse model for sepsis: survival, weight and MSS clinical score; format: in vivo
# Source text: The cecal ligation puncture (CLP) model has been proposed to more closely replicate the nature and course of clinical sepsis in humans, as compared to other models, and is considered by many researchers as the gold-standard animal model of sepsis. The CLP model involves the ligation of the cecum, usually below the ileocecal junction (to prevent bowel obstruction), and at least one centimeter above the distal end of the cecum, otherwise the sepsis induced is very mild. The length of ligated cecum, defined as the distance from the distal end of the cecum to the ligation point, determines the severity of the sepsis induced. Following ligation, the cecum is perforated, and this step too can be adjusted to modulate the severity of the sepsis ensuing. The perforation of the cecum is followed by the release of fecal material into the peritoneal cavity to induce a polymicrobial infection, which results in an exacerbated immune response. The benefits of the CLP model are its reproducibility and potential to alter the severity of sepsis by controlling needle size, number of cecal punctures, and antibiotics utilization.
# The study reported here summarizes the effect of apoptotic cells administered 4 hours after the end of CLP on the development of CLP-induced sepsis in a female C57BL/6 mouse model.
# C57BL/6 female mice, 10-13 wk old, were purchased from ENVIGO (Israel). Mice were kept in an SPF animal facility in compliance with institutional IACUC guidelines. Mice were weighed daily and monitored 2-3 times a day for clinical signs and determination of the murine sepsis score (MSS) clinical score (according to Shrum, B., Anantha, R. V., Xu, S. X., Donnelly, M., Haeryfar, S. M. M., McCormick, J. K., and Mele, T. (2014). A robust scoring system to evaluate sepsis severity in an animal model. BMC Res. Notes 7, 1-11). The endpoint was defined as total score of 15 or maximum score in one of the categories in the table.
# The procedure was performed as briefly described below: Cecal Ligation and Puncture (CLP)—Experimental method. Briefly, the mice were operated under isoflurane anesthesia machine. Mice were anesthetized by 4% isoflurane in the chamber for about 1 minute, following anesthesia mice were transferred to the operation table and connected to the isoflurane nuzzle with 2% isoflurane. Mice were administered analgesics by sub-cutaneous (S.C.) injection of tramadol 5 mg/kg in 0.1 ml of pre-warmed 0.9% saline solution. After opening the abdomen of the mouse by a midline incision, the cecum was exposed. The cecum was ligated 75% above its distal end with a 4-0 silk suture. Following ligation, the cecum was perforated twice with a 19-gauge needle, using the through-and-through technique (introducing a needle through the cecum). […]
# Raji cells = assay: Flow cytometry of CD20+ Raji tumor cells in spleen, bone marrow and liver of leukemic mice; format: in vivo, mouse; conditions: for CD20+, Bone marrow / CD20+, Liver / CD20+, Spleen: In Vivo Experiment 023, individual mice
# Method: Mouse spleen, liver, and bone marrow were collected from sacrificed mice (following deterioration of clinical signs, as defined above) and analyzed by flow-cytometry (FACSCalibur, BD, Franklin Lakes, N.J., USA) for the presence of the Raji tumor (anti-CD20).
# Upon sacrifice, following the deterioration of clinical signs as described above, organs of interest were collected for analysis, namely the liver, spleen, and bone-marrow. Cells of these target organs were analyzed by flow cytometry for the presence of human tumor cells (Raji cells are positive for CD20).
# Liver, spleen, and bone marrow cells were collected and analyzed by flow cytometry (FACSCalibur, BD) for the presence of human CD20-FITC (Biolegend, Cat. #302206); mIgG1-FITC (Biolegend, Cat. #400110).
# Mouse spleen, liver, and bone marrow cells were collected from mice who were sacrificed following clinical deterioration, as defined in the methods) and analyzed by flow cytometry (FACSCalibur, BD) for the presence of human CD20 (FITC).
# Expression (%) of CD20 tumor cells in the spleen, bone marrow, and liver, as determine by flow cytometry. Mouse spleen, liver, and bone marrow were collected from sacrificed mice (following clinical deterioration, as defined in methods) and analyzed by flow cytometry (FACSCalibur, BD) for the presence of human CD20 (FITC).
# [4] = CLP mice given ertapenem, Allocetra-OTS 20×10^6 cells IV 4 h after CLP
compound,measurement,setting,value
C[C@@H](O)[C@H]1C(=O)N2C(C(=O)O)=C(S[C@@H]3CN[C@H](C(=O)Nc4cccc(C(=O)O)c4)C3)[C@H](C)[C@H]12 [Ertapenem],cytokine/chemokine release after sepsis induction,[1],no beneficial effects
same,"Basophils, median",CLP-induced sepsis [2],0 10^3/μl
same,"C3a, median",CLP-induced sepsis [2],4835 ng/mL
same,"C5a, median",CLP-induced sepsis [2],1809 ng/mL
same,"Chloride, median",CLP-induced sepsis [2],121.1 mmol/L
same,"Cholesterol, median",CLP-induced sepsis [2],108 mg/dL
same,"Eosinophils, median",CLP-induced sepsis [2],0 10^3/μl
same,"Glucose, median",CLP-induced sepsis [2],59.5 mg/dL
same,"HCT, median",CLP-induced sepsis [2],40.9%
same,"Hemoglobin, median",CLP-induced sepsis [2],12.4 g/dL
same,"Lactate, median",CLP-induced sepsis [2],13 mg/dL
same,"Lymphocytes, median",CLP-induced sepsis [2],1.55 10^3/μl
same,"MCH, median",CLP-induced sepsis [2],14.9 pg
same,"MCHC, median",CLP-induced sepsis [2],31.2 g/dL
same,"MCV, median",CLP-induced sepsis [2],47.9 fL
same,"Monocytes, median",CLP-induced sepsis [2],0 10^3/μl
same,"Neutrophils, median",CLP-induced sepsis [2],0.31 10^3/μl
same,"Phosphorus, median",CLP-induced sepsis [2],10.2 mg/dL
same,"Platelets, median",CLP-induced sepsis [2],99 10^3/μL
same,"Potassium, median",CLP-induced sepsis [2],6.6 mmol/L
same,"RBC, median",CLP-induced sepsis [2],8.36 10^6/μL
same,"Sodium, median",CLP-induced sepsis [2],154.1 mmol/L
same,"WBC, median",CLP-induced sepsis [2],1.94 10^3/μL
same,final clinical score (MSS plateau value),CLP-induced sepsis [3]; CLP mice given ertapenem,14.37
same,median survival,CLP-induced sepsis [3]; [4],48 h
same,mortality,CLP-induced sepsis [3]; [4],93%
same,survival rate,"CLP-induced sepsis [3]; Ertapenem with vehicle control, n=15",6.6%
Rituximab [RtX],"CD20+, Bone marrow",Raji cells; RtX 2 mg/kg,0.8% and 3.1% and 3%
same,"CD20+, Liver",Raji cells; RtX 2 mg/kg,2.1% and 1.2% and 0.4%
same,"CD20+, Spleen",Raji cells; RtX 2 mg/kg,0% (2×) and 0.7%
same,"CD20+, Bone marrow",Raji cells; RtX 5 mg/kg,2.1% and 0.5% and 4.3% and 2.2% and 2.6%
same,"CD20+, Liver",Raji cells; RtX 5 mg/kg,1% and 7.3% and 1.4% and 0.9% and 5.7%
same,"CD20+, Spleen",Raji cells; RtX 5 mg/kg,0% (3×) and 0.1% (2×)
same,"CD20+ average tumor cell population, Bone Marrow",Raji cells; rtx 2 mg/Kg,2.3 ± 1.3%
same,"CD20+ average tumor cell population, Liver",Raji cells; rtx 2 mg/Kg,1.2 ± 0.8%
same,"CD20+ average tumor cell population, Spleen",Raji cells; rtx 2 mg/Kg,0.2 ± 0.4%
same,"CD20+ average tumor cell population, Bone Marrow",Raji cells; rtx 5 mg/Kg,1.7 ± 1.5%
same,"CD20+ average tumor cell population, Liver",Raji cells; rtx 5 mg/Kg,3 ± 2.5%
same,"CD20+ average tumor cell population, Spleen",Raji cells; rtx 5 mg/Kg,0%
